Test results: patent publication US20160159814A1, “GLYCINE TRANSPORTER INHIBITOR” (TAISHO PHARMACEUTICAL CO., LTD., priority 2013, published 2016)

The compounds below were run against T1, human type 1 glycine transporter (GlyT1) (Homo sapiens, UniProt P48067) (assay: Glycine uptake inhibition experiment ([3H] glycine uptake in T98G cells expressing GlyT1)). Details: not given.
T1 construct: T98G cells (glioma cells) expressing human type 1 glycine transporter (GlyT1) were used; endogenous in cells; host or cells: T98G cells (human glioma cells)
T1 sequence (P48067 1-706): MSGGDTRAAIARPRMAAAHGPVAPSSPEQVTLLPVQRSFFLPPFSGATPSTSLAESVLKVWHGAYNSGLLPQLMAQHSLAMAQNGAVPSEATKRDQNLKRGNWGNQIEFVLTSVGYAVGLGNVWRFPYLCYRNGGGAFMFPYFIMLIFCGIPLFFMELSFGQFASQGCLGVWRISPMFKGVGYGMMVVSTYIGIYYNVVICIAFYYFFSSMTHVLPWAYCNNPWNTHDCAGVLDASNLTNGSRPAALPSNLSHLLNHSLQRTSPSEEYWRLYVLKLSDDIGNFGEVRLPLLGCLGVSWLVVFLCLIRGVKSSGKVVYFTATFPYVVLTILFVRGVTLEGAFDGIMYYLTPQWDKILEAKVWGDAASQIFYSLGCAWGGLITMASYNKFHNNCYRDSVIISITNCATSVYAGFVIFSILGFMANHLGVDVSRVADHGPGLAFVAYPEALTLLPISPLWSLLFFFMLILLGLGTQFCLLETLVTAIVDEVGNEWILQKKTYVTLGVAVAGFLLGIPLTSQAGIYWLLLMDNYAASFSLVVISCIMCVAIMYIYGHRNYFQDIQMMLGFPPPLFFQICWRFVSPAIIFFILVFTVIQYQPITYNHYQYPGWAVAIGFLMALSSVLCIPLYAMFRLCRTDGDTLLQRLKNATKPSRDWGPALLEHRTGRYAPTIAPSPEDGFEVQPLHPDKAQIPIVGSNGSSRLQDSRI
Assay type: cell-based
Method in brief: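 T98G glioma cells expressing human GlyT1 were pretreated 10 min with compound in HEPES buffer pH 7.4 (0.2% BSA), then incubated with compound plus 250 nM final [3H]glycine for 15 min at room temperature. Intracellular radioactivity was counted after NaOH lysis; 10 μM ALX5407 defined non-specific uptake. IC50 came from 10^−9–10^−5 M curves.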

Going from `C[C@H](O)c1cccc2c1C(F)(F)C(=O)N2Cc1ccc(-n2ccnn2)nc1` [Compound 197, 3,3-difluoro-4-[(1S)-1-hydroxyethyl]-1-{[6-(1H-1,2,3-triazol-1-yl)pyridin-3-yl]methyl)-1,3-dihydro-2H-indol-2-one] to `CCOc1ccc(CN2C(=O)C(F)(F)c3c([C@H](C)O)cccc32)cn1` [Compound 241, 1-[(6-ethoxypyridin-3-yl)methyl]-3,3-difluoro-4-[(1S)-1-hydroxyethyl]-1,3-dihydro-2H-indol-2-one], the IC50 falls from 6700 nM to 66 nM (100-fold). The second is the more potent here.

Going from `C[C@H](O)c1cccc2c1C(F)(F)C(=O)N2Cc1cnccc1Cl` [Compound 207, 1-[(4-chloropyridin-3-yl)methyl]-3,3-difluoro-4-[(1S)-1-hydroxyethyl]-1,3-dihydro-2H-indol-2-one] to `C[C@H](O)c1cccc2c1C(F)(F)C(=O)N2Cc1ccc(Cl)c(Cl)n1` [Compound 244, 1-[(5,6-dichloropyridin-2-yl)methyl]-3,3-difluoro-4-[(1S)-1-hydroxyethyl]-1,3-dihydro-2H-indol-2-one], the IC50 falls from 94 nM to 9.7 nM (9.7-fold).

`C[C@H](O)c1cccc2c1C(F)(F)C(=O)N2Cc1cc(C#N)ncc1F` [Compound 188, 4-({3,3-difluoro-4-[(1S)-1-hydroxyethyl]-2-oxo-2,3-dihydro-1H-indol-1-yl}methyl)-5-fluoropyridine-2-carbonitrile] showed an IC50 of 62 nM.

Same assay, conditions: glycine uptake inhibition

Compared with `C[C@H](O)c1cccc2c1C(F)(F)C(=O)N2Cc1cc2ccccc2c(=O)[nH]1` [Compound 99, 3-({3,3-difluoro-4-[(1S)-1-hydroxyethyl]-2-oxo-2,3-dihydro-1H-indol-1-yl}methyl) isoquinolin-1(2H)-one], `CC(O)c1cccc2c1C(F)(F)C(=O)N2Cc1cccc(Cl)n1` (single isomer, unassigned) [Compound 4] is 7.4-fold lower in IC50: 48 nM for the first, 6.5 nM for the second.

Going from `COc1cccc(CN2C(=O)C(F)(F)c3c([C@H](C)O)cccc32)n1` [Compound 68, 3,3-difluoro-4-[(1S)-1-hydroxyethyl]-1-[(6-methoxypyridin-2-yl)methyl]-1,3-dihydro-2H-indol-2-one] to `C[C@H](O)c1cccc2c1C(F)(F)C(=O)N2Cc1cc2ccoc2cn1` [Compound 125, 3,3-difluoro-1-(furo[2,3-c]pyridin-5-ylmethyl)-4-[(1S)-1-hydroxyethyl]-1,3-dihydro-2H-indol-2-one], the IC50 rises from 76 nM to 130 nM (1.7-fold). The first is the more potent here.

First: Cn1c(=O)c(CN2C(=O)C(F)(F)c3c([C@@H](O)C(F)(F)F)cccc32)nc2ccccc21 [Compound 141, 3-({3,3-difluoro-2-oxo-4-[(1R)-2,2,2-trifluoro-1-hydroxyethyl]-2,3-dihydro-1H-indol-1-yl}methyl)-1-methylquinoxalin-2(1H)-one]
Second: N#Cc1cccc(CN2C(=O)C(F)(F)c3c(C(O)C(F)(F)F)cccc32)n1 (single isomer, unassigned) [Compound 19, 6-{[3,3-difluoro-2-oxo-4-(2,2,2-trifluoro-1-hydroxyethyl)-2,3-dihydro-1H-indol-1-yl]methyl}pyridine-2-carbonitrile]
The IC50 of the first is 1.7-fold higher: 100 nM for the first, 60 nM for the second. The second is the more potent here.

Going from `CC(c1cccc(Cl)n1)N1C(=O)C(F)(F)c2c([C@H](C)O)cccc21` (stereo partly drawn) [Compound 51, 1-[1-(6-chloropyridin-2-yl)ethyl]-3,3-difluoro-4-[(1S)-1-hydroxyethyl]-1,3-dihydro-2H-indol-2-one] to `O=C1N(Cc2cncc(-n3nccn3)c2)c2cccc(C(O)C(F)F)c2C1(F)F` (single isomer, unassigned) [Compound 148, 4-(2,2-difluoro-1-hydroxyethyl)-3,3-difluoro-1-{[5-(2H-1,2,3-triazol-2-yl)pyridin-3-yl]methyl}-1,3-dihydro-2H-indol-2-one], the IC50 falls from 260 nM to 39 nM (6.7-fold). The second is the more potent here.

Same assay, conditions: table section whose head prints (μm)

`O=C1N(Cc2ccc(F)c(Cl)n2)c2cccc(C(O)C(F)F)c2C1(F)F` (single isomer, unassigned) [Compound 263, 1-[(6-chloro-5-fluoropyridin-2-yl)methyl]-4-(2,2-difluoro-1-hydroxyethyl)-3,3-difluoro-1,3-dihydro-2H-indol-2-one] showed an IC50 of 11 nM.
